Assays:
primary human T-cells [1] = assay: IL2 secretion measurements in CD3-stimulated T-cells; assay type: cell-based; conditions: Homo sapiens, T-cell, 24 h, CD3 condition; for Emax: IL2 after 24 hours, 20 μM reference compound A1 = 100%, read-out: Emax IL2 (% activation); for EC50: IL2 secretion after 24 hours, read-out: Tcell IL2 CD3 EC50
Method: As readouts for T-cell activation, IL2 secretion after 24 hours and proliferation after 5 days was measured. Increases in IL2 secretion and proliferation upon compound treatment were assessed as the % of the maximum of reference compound A1. WO 2016/139181 discloses reference compound A1 as example 70. As a counter screen and to make sure that no unwanted TCR-independent activation was triggered, PBS conditions were run for all compounds.
Expanded primary human T-cells were thawed and cultured in RPMI 1640 (Gibco, #61870-010)+5% human serum (HS, Sigma, #H3667)+1 mM Sodium Pyruvate (Gibco, #11360-039)+50 μM 2-mercaptoethanol (Gibco, #31350-010) and 1× Pen-Strep (Life Technologies, #15140122) medium at density of 2 Mio/ml for 3 hours in 5% CO2, 37° C. and 95% humidity. For coating of plates, […] or PBS++ with CD3 antibody (concentration depending on donor and determined by CD3 titrations) was added 100 μl/well to Poly-D Lysine coated 96-well plates. Plates were sealed and incubated at room temperature for 3 hours on a table-top rocking platform. After incubation, plates were washed once with PBS−− and filled with 40 μl/well culture medium only. Compounds were then added (see next section) to medium only plates. After 3 hours of culturing the T-cells, cells were filtered through a cell strainer (Miltenyi Biotech, #130-041-407), counted again and concentration was adjusted to 1.25 Mio/ml.
Cells were then seeded 80 μl/well to the 40 μl/well including dispensed compounds according to plate layout. By adding cells, compounds were further diluted 1:3, and resulting in 100k cells/120 µl/well. After 24 hours 40 μl of supernatant was collected carefully from the top while not disturbing the cells and transferred into a round bottom 96 well plate. Collected and frozen supernatant was used for detection of IL2 using the IL-2 Human ProQuantum Immunoassay Kit (Invitrogen) or using the Human IL-2 ELISA Kit (Thermo Fisher).
(§1) Compound Treatment Compounds were added in a 5 or 6 pt dose response with the Tecan D300e Digital Dispenser, all conditions 3 times more concentrated than the end-concentration, since cells are added afterwards (80p1 cells to 40p1 prepared medium with treatment). The DR was starting at 20 μM or 10 μM final top concentration and a dilution factor of 3.333. The positive control was the reference compound A1 that was added in a dose response as well, additionally to 3 wells of only 20 μM representing the positive stimulator control. All wells were normalized with DMSO to a final concentration of 0.6% (0.2% end-concentration).
The immunoassay is done following the manufacturer's manual (Invitrogen, #A35603).
Additional information: For the immunoassay, MicroAmp™ EnduraPlate™ Optical 384-Well plates are used. Frozen supernatant is thawed and centrifuged for 5 minutes at 1000×g, both steps at 4° C. After centrifugation, required sample amount is taken from the top, and in a separate LightCycler V-bottom plate (working plate) diluted with assay dilution buffer, dilution factor depending on the PBS or CD3 condition but at least 1:3. IL-2 standard and blanks are prepared in the same V-bottom plate, standard with a range of 0.0128-5000 pg/ml (extended version). After preparation, 5 μl of sample dilutions or standard/blanks are transferred to the optical 384-well plate (assay plate) and the 10 μl reaction protocol is being followed. For measurement, the QuantStudio 12K Flex system is used. Raw data is extracted and IL-2 concentrations are calculated with the Thermo Fisher online app (apps.thermofisher.com/apps/proquantum).
ELISA is done following the manufacturer's manual (Thermo Fisher Scientific, #88-7025-88). Additional information: For the ELISA Nunc MaxiSorp 96 well plates are used. Frozen supernatant is thawed and centrifuged for 5 minutes at 1000×g, both steps at 4° C. […]

primary human T-cells [2] = assay: T-cell proliferation assay (CellTiter-Glo); assay type: cell-based; conditions: Homo sapiens, T-cell, 120 h, CD3 condition; for Emax: 5 days, 20 μM reference compound A1 = 100%, read-out: Emax proliferation (% activation); for EC50: proliferation after 5 days, CellTiter-Glo, read-out: Tcell Proliferation CD3 EC50
Method: Expanded primary human T-cells are thawed and cultured in RPMI 1640 (Gibco, #61870-010)+5% human serum (HS, Sigma, #H3667)+1 mM Sodium Pyruvate (Gibco, #11360-039)+50 μM 2-mercaptoethanol (Gibco, #31350-010) and 1× Pen-Strep (Life Technologies, #15140122) medium at density of 2 Mio/ml for 3 hours in 5% CO2, 37° C. and 95% humidity. For coating of plates, PBS++ only or PBS++ with CD3 antibody (concentration depending on donor and determined by CD3 titrations) is added 100 μl/well to Poly-D Lysine coated 96-well plates. Plates are sealed and incubated at room temperature for 3 hours on a table-top rocking platform. After incubation, plates are washed once with PBS−− and filled with 40 μl/well culture medium only. Compounds are then added (see next section) to medium only plates. After 3 hours of culturing the T-cells, cells are filtered through a cell strainer (Miltenyi Biotech, #130-041-407), counted again and concentration is adjusted to 1.25 Mio/ml.
Cells are then seeded 80 μl/well to the 40 µl/well including dispensed compounds according to plate layout. By adding cells, compounds are further diluted 1:3, and resulting in 100k cells/120 µl/well. After 48 hours 40 μl of supernatant is collected carefully from the top while not disturbing the cells. Cells are assessed for proliferation 5 days later by measuring […] using CellTiterGlo (Promega).
as §1, with “Compounds” for “Compound Treatment Compounds”
After 5 days, for detection of ATP which is directly proportional to the number of cells present per well, the CellTiter-Glo® 2.0 Reagent is used. After visual control for toxicity or precipitations of the tested compounds, the plates are equilibrated to room temperature for 45 minutes. CellTiter-Glo® 2.0 Reagent is equilibrated to room temperature as well. After equilibration, an equal amount of CellTiter-Glo reagent is added to the cells (80 µl/well) with an electronic multichannel pipette. Plates are placed on a rocking platform for 15 minutes at room temperature. After incubation, the bottom of the plates is sealed with backing tape. Luminescence is measured with PHERAstar FSX (interval time 0.5 sec, gain 3000, focal height 15 mm) and exported as CSV file for analysis in Genedata screener.
Calculations and Data Reporting CD3 and PBS plates were analysed separately in Genedata Screener using Roche Normalization PCT_POS_CTRL with DMSO set as Neutral Control and 20 μM of the reference compound A1 set as Stimulator Control/100%.
For CD3 conditions EC50 and Emax of the fitted sigmoidal curve were reported. If no curve could be fitted, the EC50 was reported as blank field and the Emax was based on individual data points. […] Compounds which activate unstimulated cells (see IL2 measurements) or compounds which negatively affected viability were flagged.

DGKzeta = DGKzeta (Homo sapiens, UniProt Q13574); assay: In vitro DGK inhibition assay (ADP-Glo, liposomes), DGKzeta; assay type: biochemical; set-up: hDGKzeta(1-928)-N-His; His (N); made in house; host or cells: Sf21 insect cells (baculovirus); conditions: 2 nM DGK ζ, 50 μM ATP, 125 uM DLG in liposomes, 1 hour reaction
Sequence of DGKzeta (Q13574 whole entry): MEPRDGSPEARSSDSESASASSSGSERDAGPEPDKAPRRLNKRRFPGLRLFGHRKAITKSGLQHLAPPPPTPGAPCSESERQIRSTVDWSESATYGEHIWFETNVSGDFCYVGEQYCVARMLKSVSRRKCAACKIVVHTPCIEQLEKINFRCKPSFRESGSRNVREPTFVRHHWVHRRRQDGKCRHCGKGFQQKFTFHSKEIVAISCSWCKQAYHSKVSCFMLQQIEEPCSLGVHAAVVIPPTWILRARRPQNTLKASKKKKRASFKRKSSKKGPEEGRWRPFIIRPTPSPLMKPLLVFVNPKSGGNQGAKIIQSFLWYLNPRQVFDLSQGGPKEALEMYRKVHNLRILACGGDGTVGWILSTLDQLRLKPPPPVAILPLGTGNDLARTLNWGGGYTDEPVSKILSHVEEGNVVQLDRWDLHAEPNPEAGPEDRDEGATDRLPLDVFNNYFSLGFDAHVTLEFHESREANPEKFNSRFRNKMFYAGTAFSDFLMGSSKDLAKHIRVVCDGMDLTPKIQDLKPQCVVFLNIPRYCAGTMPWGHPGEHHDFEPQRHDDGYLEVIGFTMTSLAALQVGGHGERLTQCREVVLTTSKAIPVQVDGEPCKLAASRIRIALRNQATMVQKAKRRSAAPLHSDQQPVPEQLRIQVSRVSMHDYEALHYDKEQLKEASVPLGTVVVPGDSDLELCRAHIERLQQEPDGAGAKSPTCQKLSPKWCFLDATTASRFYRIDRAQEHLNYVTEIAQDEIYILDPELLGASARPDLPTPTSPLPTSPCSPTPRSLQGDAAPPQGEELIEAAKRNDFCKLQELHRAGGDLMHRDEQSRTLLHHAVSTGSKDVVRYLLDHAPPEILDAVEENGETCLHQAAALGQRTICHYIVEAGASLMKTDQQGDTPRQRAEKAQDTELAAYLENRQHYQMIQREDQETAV
Method: (§2) DGK α and ζ kinases use ATP to phosphorylate the substrate 1,2-dilauroyl-sn-glycerol (DLG, incorporated in the liposomes). ATP is converted to ADP as a result of this enzymatic reaction. After the kinase reaction, an ATP-depletion reagent is added to terminate the kinase reaction and deplete any remaining ATP, leaving only ADP. Second, a detection reagent is added to simultaneously convert ADP to ATP and allow the newly synthesized ATP to be converted to light using a coupled luciferase/luciferin reaction.
(§3) Purification of both enzymes was performed as previously described by Takahashi et al., PeerJ, 2018 (Takahashi, D.; Sakane, F. Expression and purification of human diacylglycerol kinase alpha from baculovirus-infected insect cells for structural studies. PeerJ 2018, 6, No. e5449).
(§4) A concentrated liposome solution was prepared in assay buffer without DTT and BSA: 2 mM of DLG in 21 mM of total liposome (2 mM DLG/8 mM PS/11 mM PC). The reaction mixtures contain the assay buffer with a final DLG concentration of 125 uM ATP concentrations of 25 μM (for DGKA assay) or 50 μM (for DGKZ assay). The reactions were started by addition of DGK a and (kinases at 4 nM and 2 nM final concentrations, respectively. After 1 hour reaction, the amount of ADP formed was detected with the ADP-Glo kinase assay (Promega) according to the manufacturer instructions. Compounds were added in 11-points dose response, starting at […], 1:3 dilutions, with a final DMSO concentration of 2%. The multidrop combi was used as a liquid handler and luminescence was read with 0.5 s by the envision reader (PE).

DGKalpha = DGKalpha (Homo sapiens, UniProt P23743); assay: In vitro DGK inhibition assay (ADP-Glo, liposomes), DGKalpha; assay type: biochemical; set-up: hDGKalpha(1-735)-N-His; His (N); made in house; host or cells: Sf21 insect cells (baculovirus); conditions: 4 nM DGK α, 25 μM ATP, 125 uM DLG in liposomes, 1 hour reaction
Sequence of DGKalpha (P23743 whole entry): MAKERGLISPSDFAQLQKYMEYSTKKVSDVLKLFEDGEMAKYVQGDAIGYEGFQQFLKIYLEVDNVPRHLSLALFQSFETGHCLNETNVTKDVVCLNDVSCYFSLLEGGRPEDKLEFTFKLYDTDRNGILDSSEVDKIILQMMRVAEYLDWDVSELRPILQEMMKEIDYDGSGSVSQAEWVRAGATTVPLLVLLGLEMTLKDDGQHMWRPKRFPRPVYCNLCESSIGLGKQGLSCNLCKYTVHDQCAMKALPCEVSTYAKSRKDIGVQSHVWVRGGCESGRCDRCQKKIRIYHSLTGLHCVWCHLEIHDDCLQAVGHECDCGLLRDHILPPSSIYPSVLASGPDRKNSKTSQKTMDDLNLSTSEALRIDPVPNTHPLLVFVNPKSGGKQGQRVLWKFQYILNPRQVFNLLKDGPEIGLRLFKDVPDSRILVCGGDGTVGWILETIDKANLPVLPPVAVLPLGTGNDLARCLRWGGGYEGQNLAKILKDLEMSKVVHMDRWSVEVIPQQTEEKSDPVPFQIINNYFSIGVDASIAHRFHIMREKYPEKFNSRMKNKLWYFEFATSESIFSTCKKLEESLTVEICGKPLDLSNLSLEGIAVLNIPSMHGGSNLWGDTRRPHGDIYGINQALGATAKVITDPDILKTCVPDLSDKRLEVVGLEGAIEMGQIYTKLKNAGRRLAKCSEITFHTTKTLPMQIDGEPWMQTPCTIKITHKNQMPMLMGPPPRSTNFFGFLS
Method: as §2
as §3, with “Full length DGKA and Z were expressed in Sf21 insect cells by infecting the cells with the baculovirus stock at MOI of 2. Purification” for “Purification”
as §4

Compound | Emax (primary human T-cells [1]) [%] | Emax (primary human T-cells [2]) [%] | EC50 (primary human T-cells [1]) [nM] | EC50 (primary human T-cells [2]) [nM] | IC50 (DGKzeta) [nM] | IC50 (DGKalpha) [nM]
CC(C)(c1nnc(-c2ccc3c(c2)N(Cc2ccc(COc4ccccc4)cc2)C(=O)[C@@H](N)CS3(=O)=O)o1)S(C)(=O)=O [Example 8, (3R)-3-amino-7-[5-(1-methyl-1-methylsulfonyl-ethyl)-1,3,4-oxadiazol-2-yl]-1,1-dioxo-5-[[4-(phenoxymethyl)phenyl]methyl]-2,3-dihydro-1λ6,5-benzothiazepin-4-one] | 177 | 174 |  |  |  | 
CC(C)(c1nnc(-c2ccc3c(c2)N(Cc2ccc(OCc4cccc(F)c4)cc2)C(=O)[C@@H](N)CS3(=O)=O)o1)S(C)(=O)=O [Example 13, (3R)-3-amino-5-[[4-[(3-fluorophenyl)methoxy]phenyl]methyl]-7-[5-(1-methyl-1-methylsulfonyl-ethyl)-1,3,4-oxadiazol-2-yl]-1,1-dioxo-2,3-dihydro-1λ6,5-benzothiazepin-4-one] | 181 | 92 | 1300 | 1140 |  | 
CC(C)N(C)c1ccc(CN2C(=O)[C@@H](N)CS(=O)(=O)c3ccc(-c4nnc(C(C)(C)S(C)(=O)=O)o4)cc32)cc1 [Example 18, (3R)-3-amino-5-[[4-[isopropyl(methyl)amino]phenyl]methyl]-7-[5-(1-methyl-1-methylsulfonyl-ethyl)-1,3,4-oxadiazol-2-yl]-1,1-dioxo-2,3-dihydro-126,5-benzothiazepin-4-one] | 46 | 63 | > 10000 | 6350 |  | 
CC(C)(c1nnc(-c2cc3c(cc2F)S(=O)(=O)C[C@H](N)C(=O)N3Cc2ccc(-c3ccc(C(F)(F)F)cn3)cc2)o1)S(C)(=O)=O [Example 25, (3R)-3-amino-8-fluoro-7-[5-(1-methyl-1-methylsulfonyl-ethyl)-1,3,4-oxadiazol-2-yl]-1,1-dioxo-5-[[4-[5-(trifluoromethyl)-2-pyridyl]phenyl]methyl]-2,3-dihydro-1λ6,5-benzothiazepin-4-one] | 244 |  | 566 |  |  | 
CC(C)(c1nnc(-c2cc3c(cc2F)S(=O)(=O)C[C@H](N)C(=O)N3Cc2ccc(-c3noc(C(F)(F)F)n3)cc2)o1)S(C)(=O)=O [Example 28, (3R)-3-amino-8-fluoro-7-[5-(1-methyl-1-methylsulfonyl-ethyl)-1,3,4-oxadiazol-2-yl]-1,1-dioxo-5-[[4-[5-(trifluoromethyl)-1,2,4-oxadiazol-3-yl]phenyl]methyl]-2,3-dihydro-1λ6,5-benzothiazepin-4-one] | 307 |  | 185 |  | 573 | 1160

— patent US20260035364A1, “BICYCLIC TETRAHYDROTHIAZEPINE DERIVATIVES” (Hoffmann-La Roche Inc., priority 2022, published 2026)
